Measurements from US8110703B2, “Retinoid derivative and pharmaceutical composition and use thereof” (Anhui Medical University, priority 2008, dated 2012).
Marks after values point to notes of the source that are not given here.

Experiments:
A549 lung cancer cells = assay: MTT cell growth and proliferation experiment, A549; format: cell-based; set-up: key to Inhibition Rate: (control OD570 − test OD570)/control OD570, as fraction; conditions: A549, MTT time gradient, 10 ug/ml; for Inhibition Rate: fraction
Method: (§1) 1.1 Reagents 12 retinoic acid derivatives with the final concentrations of 1 ug/ml, 5 ug/ml and 10 ug/ml are synthesized by the Pharmaceutical College of Anhui Medical University using DMSO and anhydrous ethanol, separately packaged for storage at −20° C. and kept out of the light when used, and the final concentration of DMSO is less than 0.1%. MTT is purchased from Sigma Corp. The Coulter DNA detection kit is presented by the Central Lab of Anhui Provincial Hospital. AFP and γ-GT are provided by the Clinical Lab of No. 105 Hospital of PLA. Apoptosis-Hoechst staining kit is purchased from Beyotime Company.
(§2) 1.2 Cell Culture A549, and HpeG2 cells are stored by our lab. Cell growth condition: DMEM (from GIBICO Company) culture solution is added with 10% of calf serum (purchased from the Hangzhou Sijiqing Biological Engineering Material Co., Ltd.) to culture in a cell culture incubator (37° C., 5% CO2) with saturated humidity.
(§3) 1.3 Cell Growth and Proliferation Experiments MTT process is used. Cells in the logarithmic phase are picked and seeded on a 96-hole culture board with a cell concentration of 5×10^7/L. Each hole of the board is 200 ul. The next day after the adherence, the original solution is discarded, and the culture solution is added. The cells are divided into 1 ug/ml retinoic acid derivative groups, 5 ug/ml retinoic acid derivative groups, 10 ug/ml retinoic acid derivative groups, blank control groups, cell control groups, solvent control groups (1‰ DMSO and anhydrous ethanol) (17 in total) according to the concentrations thereof, incubated for 3d, added with MTT (5 g/L) of 20 ul/hole for incubation at 37° C. for 4 h. The original solution is carefully discarded and dried, and DMSO of 20 ul/hole is added to dissolve crystals, followed by vibrating for 10 min and determining the OD value at 570 nm. Each concentration is corresponding to 5 holes, and each group calculates the average of 3 experiments to calculate the inhibition rate to the cell growth according to the optical density (OD) average of each hole in each group and the following equation: inhibition rate %=(control hole OD570−experimental hole OD570)/control hole OD5700*100%. The process above is repeated for three times. The second experiment takes the maximum concentration (10 […]) for culture respectively for 1, 2, 3 and 7 days and repeat for three times.

liver cancer HepG2 cells = assay: MTT cell growth and proliferation experiment, HepG2; format: cell-based; set-up: key to Inhibition Rate: (control OD570 − test OD570)/control OD570, as fraction; conditions: for Inhibition Rate: fraction
Method: as §1, §2, §3

A549 cells [1] = assay: Differentiation index: CEA secretory volume of A549 cells; format: cell-based; conditions: A549 culture supernatant, 10 ug/ml, 3 d, DMSO
Method: 1.6 Detection of Differentiation Index The cultured A549 cells are randomly divided into 6 10 μg/ml drug groups, cell control groups, solvent control groups (DMSO and ethanol) and 10 μg/ml fenretinide control groups (11 in total). The control groups and drug groups are cultured for 3 days to collect respective 3 tubes of cell culture solutions which are centrifugated at a speed of 4000 r/min for 5 min to take the supernatant and detect the CEA content of the kit by using enzyme kinetics and CEA detection.

HepG2 cells [2] = assay: AFP secretory volume of HepG2 cells; format: cell-based; conditions: for effects on AFP secretory volume (statistics, in words): HepG2, compared with the control groups, P less than 0.05; for AFP: HepG2 cells, DMSO
HepG2 cells [3] = assay: γ-GT specific activity of HepG2 cells; format: cell-based; conditions: DMSO
A549 cells [4] = assay: Cell cycle and apoptosis by flow cytometry, A549; format: cell-based; conditions: A549, 10 μg/ml, 3 days, PI flow cytometry
Method: 1.4 Detection of Cell Cycle and Apoptosis by Flow Cytometry A549 cells in the logarithmic phase are collected, regulated with the concentrations thereof to 8×10^7/L, inoculated in a 6-hole board, cultured in an incubator (37° C. and 5% CO2). After the cells are adhered, the culture solution is discarded, and a culture solution having drugs with the corresponding concentrations is added and divided into 10 μg/ml drug groups, 10 μg/ml fenretinide groups, cell control groups, solvent control groups (1‰ DMSO and anhydrous ethanol) (11 in total). After 3 days, each group of cells is normally digested, collected, blown into single cell suspension, washed by cold PBS twice, and re-suspend by 10 μl PBS. Fixing and member breaking agents and a PI staining solution are added according to the Coulter DNA detection kit and reacted with one another at the room temperature and out of light for 30 min for machine detection. Each sample detects 10000 cells and repeats for three times, and the data are analyzed by Analysis software for the ratio during the G0-G1, S and G2-M periods and the ratio of apoptotic cells.

HepG2 cells [5] = assay: Cell cycle and apoptosis by flow cytometry, HepG2; format: cell-based; conditions: HepG2, flow cytometry
[6] = test system: human acute promyelocytic leukaemia; conditions: cited from earlier work
NB4 cells = assay: Cell cycle analysis by flow cytometer, NB4; format: cell-based; set-up: S %: dose or concentration left out as unconfirmed; conditions: 72 h
Method: (§4) Retinoic acid derivatives and fenretinide are prepared as a storage solution of 10 mg/mL by anhydrous ethanol and stored at […] and kept out of light.
(§5) NB4 cells and K562 cells are inoculated with an initial concentration of 2*10^5/ml in the RPMI1640 culture solution having 10% of calf serum (FBS), 100 u/ml of penicillin, 100 Lg/ml of streptomycin and 2 mmol/L of glutamine for suspension culture (37° C., 5% CO2). Change the solution every 2-3 days.
(§6) For the cells above acted by the retinoic acid derivatives and fenretinide ([…]) for 72 h, about 10^6 of them are collected, washed by PBS twice, fixed by 70% of cold ethanol over 24 h, washed by PBS twice, added with 5 ug/ml of propidium iodide for staining and detected by a flow cytometer from which the data are analyzed and processed by the multi-cycle software.

K562 cells = assay: Cell cycle analysis by flow cytometer, K562; format: cell-based; set-up: S %: dose or concentration left out as unconfirmed; conditions: 72 h
Method: as §4, §5, §6

[7] = HepG2, MTT OD 570 nm, 1 ug/ml, 3 d, solvent not given
[8] = HepG2, MTT OD 570 nm, 5 ug/ml, 3 d, solvent not given
[9] = HepG2, MTT OD 570 nm, 10 ug/ml, 3 d, solvent not given
[10] = HepG2, MTT time gradient, 10 ug/ml, 1 d
[11] = HepG2, MTT time gradient, 10 ug/ml, 2 d
[12] = HepG2, MTT time gradient, 10 ug/ml, 3 d
[13] = HepG2, MTT time gradient, 10 ug/ml, 7 d
[14] = HepG2, MTT, 1 ug/ml, 3 d, solvent not given
[15] = HepG2, MTT, 5 ug/ml, 3 d, solvent not given
[16] = HepG2, MTT, 10 ug/ml, 3 d, solvent not given
[17] = HepG2, Table 5 repeat MTT, 10 ug/ml, 3 days, DMSO

## CC1=C(/C=C/C(C)=C/C=C/C(C)=C/C(=O)Nc2ccc(C(F)(F)F)cc2)C(C)(C)CCC1 [Example 3a-01, (4-trifluoromethylphenyl)-(all-trans)-3,7-dimethyl-9-(2,6,6-trimethyl-1-cyclohexen-1-yl)-2,4,6,8-nonatetraenoic acid amide]
A549 lung cancer cells; 1 d
  OD Value (x ± s): 0.680 ± 0.055
  Inhibition Rate: 0.258
A549 lung cancer cells; 2 d
  OD Value (x ± s): 1.042 ± 0.046
  Inhibition Rate: 0.288
A549 lung cancer cells; 3 d
  OD Value (x ± s): 0.623 ± 0.006
  Inhibition Rate: 0.328
A549 lung cancer cells; 7 d
  OD Value (x ± s): 1.325 ± 0.028
  Inhibition Rate: 0.361
Liver cancer HepG2 cells; [7]
  OD Value (x ± s): 1.13 ± 0.16
Liver cancer HepG2 cells; [8]
  OD Value (x ± s): 1.13 ± 0.45
Liver cancer HepG2 cells; [9]
  OD Value (x ± s): 0.86 ± 0.13
Liver cancer HepG2 cells; [10]
  OD Value (x ± s): 1.52 ± 0.13
  Inhibition Rate: 0.12
Liver cancer HepG2 cells; [11]
  OD Value (x ± s): 0.71 ± 0.02
  Inhibition Rate: 0.42
Liver cancer HepG2 cells; [12]
  OD Value (x ± s): 0.77 ± 0.03
  Inhibition Rate: 0.54
Liver cancer HepG2 cells; [13]
  OD Value (x ± s): 0.30 ± 0.08
  Inhibition Rate: 0.77
Liver cancer HepG2 cells; [14]
  Inhibition Rate: 0.33
Liver cancer HepG2 cells; [15]
  Inhibition Rate: 0.33
Liver cancer HepG2 cells; [16]
  Inhibition Rate: 0.49
Liver cancer HepG2 cells; [17]
  OD Value (x ± s): 0.978 ± 0.072
  Inhibition Rate: 0.548*
A549 cells [1]
  CEA: 2.9 µg/L
HepG2 cells [2]
  effects on AFP secretory volume (statistics, in words): meaningful in statistics
  AFP: 13.6* ug/L
HepG2 cells [3]
  γ-GT: 52.3 ± 1.5 U/L
A549 cells [4]
  Apoptosis Rate (%): 17.6%
  G0-G1 (%): 55.6%
  G2-M (%): 2.41%
  S %: 24.9%
HepG2 cells [5]
  Apoptosis Rate (%): 16.5* %
  G0-G1 (%): 56.3%
  G2-M (%): 4.14%
  S %: 24.8%

## CC1=C(/C=C/C(C)=C/C=C/C(C)=C/C(=O)O)C(C)(C)CCC1 [ATRA, all-trans retinoic acid]
[6]; during the treatment of APL, reported abroad
  incidence rate of increased leukocyte count: about 30%
[6]; human acute promyelocytic leukaemia, 5-year clinic summary
  complete remission rate: 86%

## CC1=C(/C=C/C(C)=C/C=C/C(C)=C/C(=O)Nc2ccc(OC(F)(F)F)cc2)C(C)(C)CCC1 [Example 6a-01, (4-trifluoromethoxyphenyl)-(all-trans)-3,7-dimethyl-9-(2,6,6-trimethyl-1-cyclohexen-1-yl)-2,4,6,8-nonatetraenoic acid amide]
A549 lung cancer cells; 1 d
  OD Value (x ± s): 0.646 ± 0.019
  Inhibition Rate: 0.296
A549 lung cancer cells; 2 d
  OD Value (x ± s): 0.909 ± 0.065
  Inhibition Rate: 0.378
A549 lung cancer cells; 3 d
  OD Value (x ± s): 0.567 ± 0.057
  Inhibition Rate: 0.389
A549 lung cancer cells; 7 d
  OD Value (x ± s): 1.243 ± 0.024
  Inhibition Rate: 0.401
Liver cancer HepG2 cells; [7]
  OD Value (x ± s): 0.97 ± 0.29
Liver cancer HepG2 cells; [8]
  OD Value (x ± s): 0.89 ± 0.14
Liver cancer HepG2 cells; [9]
  OD Value (x ± s): 0.89 ± 0.30
Liver cancer HepG2 cells; [10]
  OD Value (x ± s): 1.28 ± 0.07
  Inhibition Rate: 0.06
Liver cancer HepG2 cells; [11]
  OD Value (x ± s): 1.55 ± 0.11
  Inhibition Rate: 0.10
Liver cancer HepG2 cells; [12]
  OD Value (x ± s): 1.24 ± 0.18
  Inhibition Rate: 0.26
Liver cancer HepG2 cells; [13]
  OD Value (x ± s): 0.62 ± 0.13
  Inhibition Rate: 0.50
Liver cancer HepG2 cells; [14]
  Inhibition Rate: 0.42
Liver cancer HepG2 cells; [15]
  Inhibition Rate: 0.47
Liver cancer HepG2 cells; [16]
  Inhibition Rate: 0.47
Liver cancer HepG2 cells; [17]
  OD Value (x ± s): 1.163 ± 0.102
  Inhibition Rate: 0.463*
A549 cells [1]
  CEA: 2.9 µg/L
HepG2 cells [2]
  effects on AFP secretory volume (statistics, in words): meaningful in statistics
  AFP: 13.6* ug/L
HepG2 cells [3]
  γ-GT: 58.0 ± 1.5 U/L
A549 cells [4]
  Apoptosis Rate (%): 30.5%
  G0-G1 (%): 40.1%
  G2-M (%): 2.34%
  S %: 27.9%
HepG2 cells [5]
  Apoptosis Rate (%): 11.1%
  G0-G1 (%): 57.4%
  G2-M (%): 5.30%
  S %: 26.7%
NB4 cells
  G1 %: 38.24%
  G2 %: 2.70%
  S %: 59.06%
K562 cells
  G1 %: 34.2%
  G2 %: 9.4%
  S %: 56.4%
